Assay results: ChEMBL document CHEMBL5724709, “EUbOPEN Chemogenomics Library - IncuCyte” (2024)
Square brackets hold non-standard residues; d marks the D form. Peptide text beside a SMILES is read from it. * marks the point of attachment. Benzoyl(4-OPh) = O=C(c1ccc(Oc2ccccc2)cc1)*; Benzoyl(4-tBu) = CC(C)(C)c1ccc(C(=O)*)cc1; Lys(Et2) = CCN(CC)CCCC[C@H](N)C(=O)O; d(aIle) = CC[C@H](C)[C@@H](N)C(=O)O; Gly(cPent) = N[C@H](C(=O)O)C1CCCC1; Nle = CCCC[C@H](N)C(=O)O; Cbz = O=C(OCc1ccccc1)*; NH(propargyl) = C#CCN*; Boc = CC(C)(C)OC(=O)*; CH2Cl = ClC*; CH2F = FC*

Columns and labels:
Format in all cases: toxicity, cell-based
U2OS = test: Incucyte cell viability with U2OS; details: human, 24 h, 10 µM, compound concentration 10 uM
HEK-293T = test: Incucyte cell viability with HEK293T; details: human, 24 h, 10 µM, compound concentration 10 uM
Fibroblast = test: Incucyte cell viability with human fibroblast; details: 24 h, 10 µM, compound concentration 10 uM
Note: unitless GR value; below 1 slowed growth and below 0 cell loss.

Row | Structure (SMILES) | Growth Rate (U2OS; replicate number 1) | Growth Rate (U2OS; replicate number 2) | Growth Rate (HEK-293T; replicate number 1) | Growth Rate (HEK-293T; replicate number 2) | Growth Rate (Fibroblast; replicate number 1) | Growth Rate (Fibroblast; replicate number 2)
1 | CC(=O)N[C@@H](Cc1ccccc1)C(=O)N[C@@H](CC(C)C)C(=O)N[C@H](C(=O)N[C@@H](CC(=O)O)C(=O)CCl)[C@@H](C)O (Ac-FLTD-CH2Cl) | 0.81 | 0.66 | 0.96 | 0.99 | 0.51 | 1
2 | CC[C@H](C)[C@H](NC(C)=O)C(=O)N[C@@H](CCC(=O)O)C(=O)N[C@H](C(=O)N[C@H](C=O)CC(=O)O)[C@@H](C)O.O=C(O)C(F)(F)F (Ac-IETD-aldehyde) | 1 | – | 0.57 | 1 | 0.25 | 0.42
3 | CC(=O)N[C@@H](CC(C)C)C(=O)N[C@@H](CCC(=O)O)C(=O)N[C@@H](Cc1cnc[nH]1)C(=O)N[C@@H](CC(=O)O)C(=O)CCl.O=C(O)C(F)(F)F (Ac-LEHD-CH2Cl) | 0.62 | 1 | 0.35 | 0.95 | 0.44 | 1
4 | CC(=O)N[C@@H](CC(C)C)C(=O)N[C@@H](CCC(=O)O)C(=O)N[C@@H](Cc1cnc[nH]1)C(=O)N[C@H](C=O)CC(=O)O.O=C(O)C(F)(F)F (Ac-LEHD-aldehyde) | 1 | 0.89 | 0.81 | 0.98 | 1 | 0.49
5 | CC(=O)N[C@@H](CC(C)C)C(=O)N[C@@H](CCC(=O)O)C(=O)N[C@H](C(=O)N[C@H](C=O)CC(=O)O)C(C)C (Ac-LEVD-aldehyde) | 0.75 | 1 | 0.89 | 0.82 | 0.82 | 0.19
6 | CCCC[C@@H](C=O)NC(=O)[C@H](CC(C)C)NC(=O)[C@H](CC(C)C)NC(C)=O (Ac-Leu-Leu-[Nle]-aldehyde) | -0.08 | 0.62 | -0.02 | 0.18 | 0.53 | 1
7 | CC(=O)N[C@H](C(=O)N[C@@H](CC(=O)O)C(=O)N[C@H](C(=O)N[C@@H](C)C(=O)N[C@H](C=O)CC(=O)O)C(C)C)C(C)C (Ac-VDVAD-aldehyde) | 0.65 | 0.76 | 0.65 | 1 | 0.52 | 1
8 | CC[C@H](C)[C@H](NC(=O)[C@H](CCC(=O)O)NC(=O)[C@@H](NC(C)=O)C(C)C)C(=O)N[C@H](C=O)CC(=O)O.O=C(O)C(F)(F)F (Ac-VEID-aldehyde) | 1 | – | 0.64 | 0.97 | 1 | 0.22
9 | CC(C)[C@H](NC(=O)[C@H](CCC(=O)O)NC(=O)[C@H](C)NC(=O)OC(C)(C)C)C(=O)N[C@H](C=O)CC(=O)O.O=C(O)C(F)(F)F (Boc-AEVD-aldehyde) | 1 | – | 0.66 | 0.93 | 0.24 | 1
10 | COC(=O)CC[C@H](NC(=O)[C@H](C)NC(=O)OCc1ccccc1)C(=O)N[C@H](C(=O)N[C@@H](CC(=O)OC)C(=O)CF)C(C)C (Cbz-AE(OMe)VD(OMe)-CH2F) | 1 | – | 0.7 | 0.98 | 0.35 | 1
11 | O=CC1CCCN1C(=O)C1CCCN1C(=O)OCc1ccccc1 (stereo not drawn) (Cbz-Pro-Pro-aldehyde; configuration not given here) | 0.37 | 0.84 | 0.88 | 0.71 | 0.22 | 0.25
12 | COC(=O)CC[C@H](NC(=O)[C@H](Cc1c[nH]c2ccccc12)NC(=O)OCc1ccccc1)C(=O)N[C@@H](Cc1cnc[nH]1)C(=O)N[C@@H](CC(=O)OC)C(=O)CF (Cbz-WE(OMe)HD(OMe)-CH2F) | 0.82 | 0.99 | 0.94 | 0.95 | 0.4 | 1
13 | CCCC(NC(=O)C(CC(C)C)NC(=O)OCc1ccccc1)C(=O)C(=O)NCc1ccccn1 (racemic) | 1 | 0.89 | 0.78 | 1 | 0.96 | 1
14 | C#CCNC(=O)[C@H](CO)NC(=O)[C@H](CCCCN(CC)CC)NC(=O)[C@H](NC(=O)[C@@H](NC(=O)c1ccc(Oc2ccccc2)cc1)C1CCCC1)[C@@H](C)CC ({Benzoyl(4-OPh)}-[Gly(cPent)][d(aIle)][Lys(Et2)]S-{NH(propargyl)}) | 1 | – | 0.58 | 1 | 1 | 0.24
15 | CCN(CC)CCCC[C@H](NC(=O)[C@H](CC(C)C)NC(=O)[C@H](C)NC(=O)[C@H](Cc1ccccc1)NC(=O)c1ccc(C(C)(C)C)cc1)C(=O)N[C@@H](CO)C(=O)OC ({Benzoyl(4-tBu)}-FAL[Lys(Et2)]S-OMe) | 1 | – | 0.81 | 0.89 | 0.92 | 0.71
16 | CCCN1CCN(c2ccc(C(=O)NC3(C(=O)NCC#N)CCCCC3)cc2)CC1 [BALICATIB] | 1 | 0.86 | 0.79 | 0.95 | 1 | –
17 | CCS(=O)(=O)N1CC(CC#N)(n2cc(-c3ncnc4[nH]ccc34)cn2)C1 [BARICITINIB] | 1 | 0.77 | 0.96 | 1 | 0.11 | 0.42
18 | CC/C(=C(/c1ccc(/C=C/C(=O)O)cc1)c1ccc2[nH]ncc2c1)c1ccc(F)cc1Cl [BRILANESTRANT] | 1 | 0.77 | 0.82 | 0.87 | 1 | –
19 | CCCC1O[C@@H]2C[C@H]3[C@@H]4CCC5=CC(=O)C=C[C@]5(C)[C@H]4[C@@H](O)C[C@]3(C)[C@]2(C(=O)CO)O1 (stereo partly specified) [BUDESONIDE] | 1 | 0.58 | 0.73 | 0.82 | 0.7 | 1
20 | O=C(CCCCCCNC(=O)c1cnc(N(c2ccccc2)c2ccccc2Cl)nc1)NO [CITARINOSTAT] | -0.08 | 0.29 | 0.9 | 1 | 1 | 0.2
21 | COc1cc(C)[nH]c(=O)c1CNC(=O)c1c(C)n([C@H](C)C2CCN(CC(F)(F)F)CC2)c2ccccc12 [CPI-1205] | 0.59 | 0.83 | 0.61 | 0.95 | 0.99 | 0.13
22 | CC(=O)O[C@]1(C(C)=O)CC[C@H]2[C@@H]3C=C(Cl)C4=CC(=O)[C@@H]5C[C@@H]5[C@]4(C)[C@H]3CC[C@@]21C [CYPROTERONE ACETATE] | 1 | 0.72 | 0.61 | 0.76 | 0.21 | 0.15
23 | Cc1nc(Nc2ncc(C(=O)Nc3c(C)cccc3Cl)s2)cc(N2CCN(CCO)CC2)n1 [DASATINIB ANHYDROUS] | -0.47 | -0.3 | -0.16 | 0.04 | 1 | 0.23
24 | CC/C(=C(/CC)c1ccc(O)cc1)c1ccc(O)cc1 [DIETHYLSTILBESTROL] | 1 | 0.74 | 0.72 | 0.87 | 0.45 | 0.22
25 | CN1CCN(c2ccc3nc(-c4c(N)c5c(F)cccc5[nH]c4=O)[nH]c3c2)CC1 [DOVITINIB] | -0.35 | -0.04 | -0.39 | -0.2 | 1 | –
